From patent publication US20210169080A1, “HETEROCYCLE DERIVATIVES AS PESTICIDES” (Bayer Aktiengesellschaft, priority 2018, published 2021) come the findings set out here.

The subject of series [1] is Ctenocephalides felis. The experiment in a line: Ctenocephalides felis oral test. The conditions noted are these: 100 ppm in citrated cattle blood, adult cat fleas, after 2 days. In kind it is in vivo. As to the method: Solvent: dimethyl sulfoxide To produce a suitable active compound formulation, 10 mg of active compound are mixed with 0.5 ml of dimethyl sulfoxide. Dilution with citrated cattle blood gives the desired concentration. About 20 unfed adult cat fleas (Ctenocephalides felis) are placed into a chamber which is closed at the top and bottom with gauze. A metal cylinder whose bottom end is closed with parafilm is placed onto the chamber. The cylinder contains the blood/active compound formulation, which can be imbibed by the fleas through the parafilm membrane. After 2 days, the kill in % is determined. 100% means that all of the fleas have been killed; 0% means that none of the fleas have been killed.

Series [2] has as its system Ctenocephalides felis. The experiment in a line: Ctenocephalides felis in vitro contact test with adult cat fleas. The conditions noted are these: application rate 5 μg/cm^2 (=500 g/ha), after 48 h. In kind it is in vivo. As to the method: For the coating of the test tubes, 9 mg of active compound are first dissolved in 1 ml of acetone p.a. and then diluted to the desired concentration with acetone p.a. 250 μl of the solution are distributed homogeneously on the inner walls and the base of a 25 ml glass tube by turning and rocking on an orbital shaker (rocking rotation at 30 rpm for 2 h). With 900 ppm of active compound solution and internal surface area 44.7 cm^2, given homogeneous distribution, an area-based dose of 5 μg/cm^2 is achieved. After the solvent has evaporated off, the tubes are populated with 5-10 adult cat fleas (Ctenocephalides felis), sealed with a perforated plastic lid and incubated in a horizontal position at room temperature and ambient humidity. After 48 h, efficacy is determined. To this end, the tubes are stood upright and the fleas are knocked to the base of the tube. Fleas which remain motionless at the base or move in an uncoordinated manner are considered to be dead or moribund. […] 100% efficacy means that all the fleas were dead or moribund. 0% efficacy means that no fleas were harmed.

The subject of series [3] is Spodoptera frugiperda. Put plainly: Spodoptera frugiperda spray test. The conditions noted are these: 100 g/ha, sprayed maize leaf discs, after 7 days. In kind it is in vivo. As to the method:
(§1) [table] To produce a suitable active compound formulation, 1 part by weight of active compound is dissolved with the specified parts by weight of solvent and made up to the desired concentration with water containing an emulsifier concentration of 1000 ppm. To produce further test concentrations, the formulation is diluted with emulsifier-containing water. Leaf discs of maize (Zea mays) are sprayed with an active compound formulation of the desired concentration and, after drying, populated with caterpillars of the fall armyworm (Spodoptera frugiperda). After 7 days, the efficacy in % is determined. 100% means that all the caterpillars have been killed; 0% means that no caterpillar has been killed.

The test system of series [4] is Boophilus microplus. The experiment in a line: Boophilus microplus injection test. In kind it is in vivo. The conditions noted are these: 20 μg/animal injected into abdomen of engorged adult female cattle ticks, assessed after 7 days. Here is the method:
Solvent: dimethyl sulfoxide To produce a suitable active compound formulation, 10 mg of active compound are mixed with 0.5 ml of solvent and the concentrate is diluted to the desired concentration with solvent. 1 μl of the active compound solution is injected into the abdomen of 5 engorged adult female cattle ticks (Boophilus microplus). The animals are transferred into dishes and kept in a climate-controlled room. The activity is assessed after 7 days by laying of fertile eggs. Eggs which are not visibly fertile are stored in a climate-controlled cabinet until the larvae hatch after about 42 days. An efficacy of 100% means that none of the ticks has laid any fertile eggs; 0% means that all the eggs are fertile.

A short description of series [5]: log P by reversed-phase HPLC (EEC Directive 79/831 Annex V.A8), acidic method. In kind it is physicochemical. The conditions noted are these: HPLC on reversed-phase C18, acidic range, formic acid in water/acetonitrile; for chromatographic logP: reversed-phase C18 HPLC column. Here is the method: The log P values were determined according to EEC Directive 79/831 Annex V.A8 by HPLC (high-performance liquid chromatography) on a reversed-phase column (C18) using the following methods: ^[a] […] Calibration was carried out using a homologous series of straight-chain alkan-2-ones (having 3 to 16 carbon atoms) with known log P values. The values between successive alkanones are determined by linear regression.

Series [6] concerns Phaedon cochleariae. The experiment in a line: Phaedon cochleariae spray test. The conditions noted are these: 100 g/ha, sprayed Chinese cabbage leaf discs, after 7 days. In kind it is in vivo. As to the method: as §1, with “water. Discs” for “water. Leaf discs”, “of Chinese cabbage leaves (Brassica pekinensis)” for “of maize (Zea mays)”, “with larvae” for “with caterpillars”, “the mustard beetle (Phaedon cochleariae).” for “the fall armyworm (Spodoptera frugiperda).”, “the beetle larvae” for “the caterpillars”, “no beetle larvae have” for “no caterpillar has”

In series [7] the test system is Rhipicephalus sanguineus. The experiment in a line: Rhipicephalus sanguineus in vitro contact test with adult brown dog ticks. The conditions noted are these: application rate 5 μg/cm^2 (=500 g ai/ha), after 48 h. In kind it is in vivo. As to the method:
For the coating of the test tubes, 9 mg of active compound are first dissolved in 1 ml of acetone p.a. and then diluted to the desired concentration with acetone p.a. 250 μl of the solution are distributed homogeneously on the inner walls and the base of a 25 ml glass tube by turning and rocking on an orbital shaker (rocking rotation at 30 rpm for 2 h). With 900 ppm of active compound solution and internal surface area 44.7 cm^2, given homogeneous distribution, an area-based dose of 5 μg/cm^2 is achieved. After the solvent has evaporated off, the tubes are populated with 5-10 adult dog ticks (Rhipicephalus sanguineus), sealed with a perforated plastic lid and incubated in a horizontal position in the dark at room temperature and ambient humidity. After 48 h, efficacy is determined. To this end, the ticks are knocked to the base of the tube and incubated on a hotplate at 45-50° C. for not more than 5 min. Ticks which remain motionless on the base or move in such an uncoordinated manner that they are unable to deliberately avoid the heat by climbing upwards are considered to be dead or moribund. […] An efficacy of 100% means that all the ticks were dead or moribund. 0% efficacy means that none of the ticks were harmed.

Series [8] relates to Diabrotica balteata. The experiment in a line: Diabrotica balteata spray test. In kind it is in vivo. The conditions noted are these: 160 μg/cavity, germinated wheat corns infested with beetle larvae, after 7 days. Here is the method: [table] To produce a suitable active compound formulation, 1 part by weight of active compound is dissolved with the specified parts by weight of solvent and made up to the desired concentration with water containing an emulsifier concentration of 1000 ppm. To produce further test concentrations, the formulation is diluted with emulsifier-containing water. Pre-swollen wheat corns (Triticum aestivum) are incubated for one day in a multiwell plate filled with agar and a little water (5 seed corns per cavity). The germinated wheat corns are sprayed with an active compound formulation of the desired concentration. Subsequently, each cavity is infested with 10-20 Diabrotica balteata beetle larvae. After 7 days, the efficacy in % is determined. 100% means that all wheat plants have grown as in the untreated uninfested control; 0% means that no wheat plant has grown.

The test system of series [9] is Myzus persicae. Put plainly: Myzus persicae oral test. In kind it is in vivo. The conditions noted are these: 4 ppm, oral uptake through parafilm, after 5 days. As to the method: [table] To produce a suitable active compound formulation, 1 part by weight of active compound is dissolved with the stated parts by weight of solvent and made up to the desired concentration with water. 50 μl of the active compound formulation are transferred into microtitre plates and made up to a final volume of 200 μl with 150 μl of IPL41 insect medium (33%+15% sugar). Subsequently, the plates are sealed with parafilm, which a mixed population of green peach aphids (Myzus persicae) within a second microtitre plate is able to puncture and imbibe the solution. After 5 days, the efficacy in % is determined. 100% means that all the aphids have been killed; 0% means that no aphids have been killed.

The subject of series [10] is Myzus persicae. The experiment in a line: Myzus persicae spray test. The conditions noted are these: 100 g/ha, sprayed Chinese cabbage leaf discs, after 5 days. In kind it is in vivo. As to the method: as §1, with “Discs” for “Leaf discs”, “Chinese cabbage leaves (Brassica pekinensis) infested by all stages of the green peach aphid (Myzus persicae)” for “maize (Zea mays)”, “concentration.” for “concentration and, after drying, populated with caterpillars of the fall armyworm (Spodoptera frugiperda).”, “5” for “7”, “aphids” for “caterpillars”, “aphids have” for “caterpillar has”

A word on the chromatographic logP: it is a lipophilicity value derived from retention on a column. The low end stands for lower lipophilicity, the high end for higher lipophilicity. On to `CCS(=O)(=O)c1c(-c2nc3cc(SC(F)(F)F)ccc3o2)nc2cc(C3(C#N)CC3)ccn12` [Example 1-3, 1-[3-(Ethylsulfonyl)-2-{5-[(trifluoromethyl)sulfanyl]-1,3-benzoxazol-2-yl}imidazo-[1,2-a]pyridin-7-yl]cyclopropanecarbonitrile], for which, in series [1], the “efficacy (kill in %)” value was found to be 100%. For the same compound, the “efficacy (fleas dead or moribund)” value in [2] is recorded as 100%. Also, the “efficacy (caterpillars killed)” value in [3] came to 100%. In addition, in series [4], the “efficacy (no laying of fertile eggs)” value is given as 90%. In [5], this compound had a chromatographic logP of 3.63. Also, the “efficacy (beetle larvae killed)” value in [6] is 100%. For the same compound, in [7], the “efficacy (ticks dead or moribund)” value is 80%.

For the compound `CCS(=O)(=O)c1c(-c2nc3cc(OC(F)(F)F)ccc3o2)nc2cc(C3(C#N)CC3)ccn12` [Example 1-5, 1-[3-Ethylsulfonyl-2-[5-(trifluoromethoxy)-1,3-benzoxazol-2-yl]imidazo[1,2-a]pyridin-7-yl]cyclopropanecarbonitrile], the “efficacy (wheat plants grown as in uninfested control)” value in series [8] turned out to be 100%. The “efficacy (caterpillars killed)” value in series [3] worked out at 83%. Further, the chromatographic logP in [5] came to 3.29.

On to `CCS(=O)(=O)c1c(-c2nc3cc([S+]([O-])C(F)(F)F)ccc3o2)nc2cc(C3(C#N)CC3)ccn12` (stereo not shown) [Example 1-2, 1-[3-(ethylsulfonyl)-2-{5-[(trifluoromethyl)sulfinyl]-1,3-benzoxazol-2-yl}imidazo[1,2-a]pyridin-7-yl]cyclo-propanecarbonitrile], for which the “efficacy (kill in %)” value in series [1] turned out to be 100%. Besides, the “efficacy (caterpillars killed)” value in [3] stood at 100%. The compound further had a chromatographic logP in series [5] of 2.67. Also, the “efficacy (beetle larvae killed)” value in [6] was 100%. Also, the “efficacy (aphids killed)” value in series [9] and in [10] was 100% in each case.

As to `CCS(=O)(=O)c1c(-c2nc3cc(C(F)(F)C(F)(F)F)ccc3o2)nc2cc(C3(C#N)CC3)ccn12` [Example 1-6, 1-[3-Ethylsulfonyl-2-[5-(l, 1,2,2,2-pentafluoroethyl)-1,3-benzoxazol-2-yl]imidazo [1,2-a]pyridin-7-yl]cyclopropanecarbonitrile], in series [5], the “log P (acidic)” value amounted to 3.68.

For `CCS(=O)(=O)c1c(-c2nc3cc(C(F)(F)F)ccc3o2)nc2cc(C3(C#N)CC3)ccn12` [Example 1-4], the “efficacy (caterpillars killed)” value in [3] is 100%. In series [5], this compound came in with a chromatographic logP of 3.22. Further, the “efficacy (beetle larvae killed)” value in series [6] was determined as 100%.

As to `CCS(=O)(=O)c1c(-c2nc3cc(S(=O)(=O)C(F)(F)F)ccc3o2)nc2cc(C3(C#N)CC3)ccn12` [Example 1-1, 1-[3-(Ethylsulfonyl)-2-{5-[(trifluoromethyl)sulfonyl]-1,3-benzoxazol-2-yl}imidazo-[1,2-a]pyridin-7-yl]cyclopropanecarbonitrile], the “efficacy (kill in %)” value in series [1] is listed as 95%. Also, the “efficacy (caterpillars killed)” value in [3] is 100%. The compound further displayed a chromatographic logP in [5] of 3.18. Also, the “efficacy (beetle larvae killed)” value in series [6] was 100%. In addition, the “efficacy (aphids killed)” value in series [9] was found to be 100%.
